Source: publication PMC11096368, “Transcriptomic signature, bioactivity and safety of a non-hepatotoxic analgesic generating AM404 in the midbrain PAG region” (Scientific Reports, 2024)
Like-named read-outs stand apart in the source and are kept apart here.

Legend:
Assay type in all cases: in vivo
[1] = system: CD-1 male mice; experiment: LPS fever induction antipyresis assay; conditions: 75 mg/kg PO, LPS 100 μg/kg ip, n = 20
Method: Antipyresis experiments were carried out with n = 60 CD-1 male mice weighing between 45 and 50 g. All mice were kept in a 12-h day/12-h night cycle with free access to food and water ad libitum. After habituating and acclimating the mice for a week, each mouse was briefly anesthetized for 1 min with 1% isoflurane and implanted subcutaneously a transmitter probe that records core body temperature – Implantable Programmable Temperature Transponder (IPTT-300) by Bio Medic Data Systems (BMDS), DE, USA. The mice were allowed to recover for at least one week from the surgery before any recordings were made and observed in their home cages prior to pyrogen challenge for inducing fever. Temperatures were recorded using the BMDS DAS-8027-IUS data reading system.
All mice were fasted overnight (15 h) with free access to water ad libitum prior to the pyrogen challenge. For the induction of fever, LPS from E. coli (100 μg/kg, 0111:B4) (MilliporeSigma, Billerica, MA, USA) was used. Mice received either LPS in 0.9% saline (sterile) (vehicle) or just 0.9% saline as an intraperitoneal (ip) injection.
All drugs and vehicle (10% DMSO: 10% labrasol :80% PEG400) were administered by oral gavage, PO dosing. Each dosing volume was ~ 0.3–0.4 mL per mouse. […] We chose this dose to record antipyretic effect in a low dose that doesn’t cause hypothermia in mice.

[2] = system: Sprague–Dawley rats; experiment: CFA-induced inflammatory pain / Hargreaves thermal sensitivity assay; conditions: high dose (100 mg/kg)
Text: In these same cohorts of animals, we simultaneously measured their thermal nociception to hyperalgesia with the Hargreaves test using the plantar test apparatus (Ugo Basile 37,570). In this experimental setup, the rodents are placed in plastic cages on top of a glass surface, and their hind paws are subjected to an infrared heat stimulus. One hind paw at a time is stimulated with the light source (noxious stimuli) until the animal retracts the paw from the glass surface because of the stimulus. Baseline withdrawal thresholds (latency) of both the right and left paws were recorded, and animals were assigned to different treatment groups so that each group had approximately equal withdrawal threshold averages in both paws. After baseline testing, treated animals received subcutaneous plantar injection (150 μl) of 50% CFA into the left hind paw, while control animals received a plantar injection (150 µl) of 0.9% NaCl into their left hind paw. CFA induces inflammation, resulting in a left hind paw that is hypersensitive to the thermal stimulus, while the right hind paw serves as a within-subject baseline for each animal. To obtain Hargreaves withdrawal latency recordings, each animal was placed in an individual plastic observation compartment on a glass platform, which provided access to the plantar surface of the hind paws from underneath. After acclimation to the environment for 30 min, thermal hypersensitivity was assessed by stimulating the mid-plantar area of each hind paw with a bright light source attached to the meter (Ugo Basile 37,570) until animals withdrew the paw from the surface. The withdrawal threshold was defined as the average time (s) required for the rat to withdraw the stimulated paw. A brisk withdrawal of the paw (often followed by a sustained retraction and/or licking) was considered a positive response, but paw withdrawals due to locomotion or weight shifting were not counted. The Hargreaves studies were conducted with the plantar stimulation device that automatically registers the time (s) necessary to elicit paw withdrawal in order to eliminate bias in determining paw withdrawal thresholds. A cutoff of 20 s is pre-programmed so that the light source shuts off at that maximal period so as to not induce any burns on the plantar surface of the rodents. The Hargreaves test permits measurement of ipsilateral and contralateral heat thresholds, allowing each animal to serve as its own internal control in unilateral pain models. In addition, the Hargreaves test enables quantification of heat thresholds in unrestrained animals, reducing the likelihood of stress-induced responses.

[3] = system: CD1 or C57BL/6 mice; experiment: Cold stimulation tail flick somatic pain assay; conditions: for ED50: Mus musculus, equimolar dosing; for Analgesia in cold tail-flick assay: high dose (100 mg/kg), all experimental cohorts
Text: The investigators were blinded till the completion of all the experiments. To ensure objectivity, investigators were blinded for the acetic acid and tail flick experiments. In the CFA/von Frey and Hargreaves assays, one investigator did the drug pre-treatments, and another investigator at another location who was not aware of the treatments conducted the behavioral testing. Moreover, these studies used the eVF device that electronically registers the grams of force necessary to elicit paw withdrawal, eliminating bias that confounded older versions of this test in which an investigator used a series of individual von Frey microfilaments to determine paw withdrawal thresholds. Six separate experimenters were involved in the data acquisition for behavioral testing, and another separate investigator performed all the statistical analyses using GraphPad Prism Version 9.1.2. Statistical significance was determined by p < 0.05; one-way ANOVA followed by Sidak’s multiple comparisons post hoc test. Mixed-gender experiments were powered to test for gender effects, and different ages of rodents were also included for the experiments – young (2 months) and aged (20 months) to tease out whether there are any effects of age-related changes in nociceptive sensitivity under naïve, and inflammatory pre-clinical rodent pain models. For the aged rats and mice, we could only obtain male Sprague–Dawley rats and male C57BL/6 mice of 20 months old from all commercial animal vendors and from the National Institute of Aging (NIA). So, only these rodents were used for the older animal experimental cohort. Old female rats and mice were not available at the time when these experiments were conducted. For ED50 calculation, dose–response curves were calculated with regression analysis and log transformation using GraphPad Prism 9.1.2.
Half of the tail was immersed in ice-cold water maintained at 4 °C. For the tail-flick assays, we used n = 70 aged male mice, n = 90 young male mice, and n = 120 young female mice. Based on the availability of mice at the time of the experiments, different numbers of animals were assigned to different cohorts of experimental animals. Tail flick assay experiments were conducted on an open bench in a dedicated room at the LSUHSC New Orleans Neuroscience Center of Excellence vivarium. Mice were allowed to acclimate to the laboratory environment for 1 h prior to testing. To restrain the mice for the test, disposable plastic 50 mL screw-capped conical centrifuge tubes were cut at the tip to create a 0.5 cm opening to allow the mice to breathe freely. Another 0.5 cm opening was cut into the cap to allow access of the tail to the water bath. A 500 mL glass beaker was filled with 450 mL of ice-cold distilled water maintained at 4 °C with the addition of ice and determined with a glass thermometer. Mice were held over the opening of the water bath, and their tails submerged approximately halfway into the water. The nociceptive threshold was taken as the latency until the mice flicked their tail tip or removed the tail. The time from immersion to the attempted tail tip removal was measured to 1/10th of a sec with a digital laboratory timer. To minimize damage to the tail, a 60-s cut-off was utilized. […] Injections were at doses of 32 mg/kg and 100 mg/kg. 30 min post-drug administration tail-flick/withdrawal latency was measured.

[4] = young male and young female rats
[5] = read-out: ED50 Tail Flick Assay (Mice), Aged (Male)
[6] = read-out: ED50 Tail Flick Assay (Mice), Young (Female)
[7] = read-out: ED50 Tail Flick Assay (Mice), Young (Male)

Compound | Antipyresis, LPS fever [1] | Analgesia in Hargreaves assay (paw withdrawal latencies) ([2]; aged male rats) | Analgesia in Hargreaves assay (paw withdrawal latencies) [2, 4] | ED50 [3, 5] [µmol/kg] | ED50 [3, 6] [µmol/kg] | ED50 [3, 7] [µmol/kg] | Analgesia in cold tail-flick assay [3]
CCN(CC)C(=O)c1ccccc1S(=O)(=O)NCC(=O)Nc1ccc(O)cc1 [SRP-001, N,N-diethyl-2-[[2-(4-hydroxyanilino)-2-oxo-ethyl]sulfamoyl]benzamide] | comparable antipyresis | significant analgesia | significant analgesia | 81.6 | 44.9 | 60 | significant analgesia
CC(=O)Nc1ccc(O)cc1 [ApAP, acetaminophen, reference compound] | comparable antipyresis | significant analgesia | significant analgesia | 281 | 70.3 | 71.8 | significant analgesia
